Measurements reported in patent US10328030B2, “Compositions and methods of use for treatment of mammalian diseases” (priority 2004, dated 2019).

Tests used:
NCI-H23 lung cells = assay: In vitro human tumor screen, 3H-thymidine assay; type: cell-based; conditions: positive control, doxorubicin 1 μM
[1] = in vivo; cited from earlier work
[2] = Metabolic clearance and tolerability of iron dextran, intravenous infusion; set-up: species or system cynomolgus monkeys (Macaca fascicularis); conditions: cynomolgus monkey, in vivo
Experimental: Experiments on metabolic clearance rates done on cynomolgus monkeys (species Macaca fascicularis) have shown the safe use of large dosages of elemental iron derived from iron dextran. […] The administered iron dextran remained in the monkey plasma for at least 120 hours, at milligram levels. […] (See, U.S. application Ser. No. 10/888,576 incorporated herein in its entirety.) The monkey model clears the iron dextran from the system much more very rapidly, as compared to humans, because of a higher metabolic rate. Therefore, a longer plasma residence time is anticipated in humans, as has been shown in research, such as, for example, Henderson & Hillman, (1969).
Experiments on metabolic clearance rates done on cynomolgus monkeys (species Macaca fascicularis) have shown the safe use of large dosages of elemental iron derived from iron dextran. […] The monkey model clears the iron dextran from the system much more very rapidly, as compared to humans, because of a higher metabolic rate. Therefore, a longer plasma residence time is anticipated in humans, as has been shown in research, such as, for example, Henderson & Hillman, (1969).

Row | Compound | inhibitory effect (in words) (NCI-H23 lung cells) | clearance rate [1] [mg/h] | time to clearance [1] [days] | side effects (in words) [2] | time remaining in plasma ([2]; iv)
1 | COc1cccc2c1C(=O)c1c(O)c3c(c(O)c1C2=O)C[C@@](O)(C(=O)CO)C[C@@H]3O[C@H]1C[C@H](N)[C@H](O)[C@H](C)O1 [doxorubicin] | high inhibitory effect |  |  |  | 
2 | iron dextran [Base Compound] |  | 10 to 20 | ≤ 3 | few negative side effects, i.e. abdominal swelling | at least 120 hours
